# Experimental data as given in patent publication US12583861B2, “Derivatives of imidazo[4,5-d]pyridazine, their preparation and their therapeutic application” (SANOFI, priority 2021, dated 2026).
# Counter-ions that a name gives are not always drawn.
# Legend:
# human TLR7 = molecular target: T1, human TLR7 (Homo sapiens, UniProt Q9NYK1); experiment: HEK-Blue hTLR7 reporter cell assay (SEAP, NF-kB/AP-1) for stimulation of human TLR7; type: cell-based; details: HEK-Blue hTLR7 cells; for activation at 20 µM: 24 h, at 20000 nM; for EC50: 24 h incubation, SEAP readout, read-out: TLR7_EC50
# T1 construct: host or cells: HEK293 (HEK-Blue hTLR7)
# T1 sequence (Q9NYK1 27-1049): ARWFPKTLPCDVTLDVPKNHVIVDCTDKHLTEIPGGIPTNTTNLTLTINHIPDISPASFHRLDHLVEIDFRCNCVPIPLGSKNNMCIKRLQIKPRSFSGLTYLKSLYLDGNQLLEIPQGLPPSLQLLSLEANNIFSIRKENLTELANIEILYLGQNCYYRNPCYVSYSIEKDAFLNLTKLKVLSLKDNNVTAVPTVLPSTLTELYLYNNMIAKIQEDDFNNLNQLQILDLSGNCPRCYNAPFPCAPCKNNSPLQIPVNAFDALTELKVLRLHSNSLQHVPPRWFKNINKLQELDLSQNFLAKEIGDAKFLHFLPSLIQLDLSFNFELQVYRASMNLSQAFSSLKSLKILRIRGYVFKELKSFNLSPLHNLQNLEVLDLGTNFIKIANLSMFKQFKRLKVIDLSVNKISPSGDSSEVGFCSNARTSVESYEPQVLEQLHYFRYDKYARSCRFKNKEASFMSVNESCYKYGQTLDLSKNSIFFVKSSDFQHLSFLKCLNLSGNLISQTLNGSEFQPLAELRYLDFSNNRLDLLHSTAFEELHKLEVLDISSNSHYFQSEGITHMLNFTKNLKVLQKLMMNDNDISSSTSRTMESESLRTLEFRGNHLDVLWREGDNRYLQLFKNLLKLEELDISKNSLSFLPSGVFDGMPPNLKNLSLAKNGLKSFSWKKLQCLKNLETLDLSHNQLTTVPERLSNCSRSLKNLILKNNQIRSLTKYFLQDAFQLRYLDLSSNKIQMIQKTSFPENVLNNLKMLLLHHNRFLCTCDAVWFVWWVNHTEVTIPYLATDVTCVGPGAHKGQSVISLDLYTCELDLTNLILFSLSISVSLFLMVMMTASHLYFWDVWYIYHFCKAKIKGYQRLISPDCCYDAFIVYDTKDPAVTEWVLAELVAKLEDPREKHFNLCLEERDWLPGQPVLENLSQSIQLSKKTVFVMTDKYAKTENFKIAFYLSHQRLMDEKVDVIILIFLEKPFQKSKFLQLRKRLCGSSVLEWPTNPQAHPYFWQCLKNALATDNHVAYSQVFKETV
# Outline: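 Activity expressed as EC50 for half-maximal SEAP induction. Compounds, serially diluted 3-fold from 20 to 0.01 μM, were incubated 24 h at 37 °C, 5% CO2 with HEK-Blue hTLR7 reporter cells (3.10E4/well, plated 18–24 h earlier); supernatant developed with QUANTI-Blue.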
# human TLR8 = molecular target: T2, human TLR8 (Homo sapiens, UniProt Q9NR97); experiment: HEK-Blue hTLR8 reporter cell assay (SEAP, NF-kB/AP-1) for stimulation of human TLR8; type: cell-based; details: HEK-Blue hTLR8 cells; for activation at 20 µM: 24 h, at 20000 nM; for EC50: 24 h incubation, SEAP readout, read-out: TLR8_EC50
# T2 construct: host or cells: HEK293 (HEK-Blue hTLR8)
# T2 sequence (Q9NR97 27-1041): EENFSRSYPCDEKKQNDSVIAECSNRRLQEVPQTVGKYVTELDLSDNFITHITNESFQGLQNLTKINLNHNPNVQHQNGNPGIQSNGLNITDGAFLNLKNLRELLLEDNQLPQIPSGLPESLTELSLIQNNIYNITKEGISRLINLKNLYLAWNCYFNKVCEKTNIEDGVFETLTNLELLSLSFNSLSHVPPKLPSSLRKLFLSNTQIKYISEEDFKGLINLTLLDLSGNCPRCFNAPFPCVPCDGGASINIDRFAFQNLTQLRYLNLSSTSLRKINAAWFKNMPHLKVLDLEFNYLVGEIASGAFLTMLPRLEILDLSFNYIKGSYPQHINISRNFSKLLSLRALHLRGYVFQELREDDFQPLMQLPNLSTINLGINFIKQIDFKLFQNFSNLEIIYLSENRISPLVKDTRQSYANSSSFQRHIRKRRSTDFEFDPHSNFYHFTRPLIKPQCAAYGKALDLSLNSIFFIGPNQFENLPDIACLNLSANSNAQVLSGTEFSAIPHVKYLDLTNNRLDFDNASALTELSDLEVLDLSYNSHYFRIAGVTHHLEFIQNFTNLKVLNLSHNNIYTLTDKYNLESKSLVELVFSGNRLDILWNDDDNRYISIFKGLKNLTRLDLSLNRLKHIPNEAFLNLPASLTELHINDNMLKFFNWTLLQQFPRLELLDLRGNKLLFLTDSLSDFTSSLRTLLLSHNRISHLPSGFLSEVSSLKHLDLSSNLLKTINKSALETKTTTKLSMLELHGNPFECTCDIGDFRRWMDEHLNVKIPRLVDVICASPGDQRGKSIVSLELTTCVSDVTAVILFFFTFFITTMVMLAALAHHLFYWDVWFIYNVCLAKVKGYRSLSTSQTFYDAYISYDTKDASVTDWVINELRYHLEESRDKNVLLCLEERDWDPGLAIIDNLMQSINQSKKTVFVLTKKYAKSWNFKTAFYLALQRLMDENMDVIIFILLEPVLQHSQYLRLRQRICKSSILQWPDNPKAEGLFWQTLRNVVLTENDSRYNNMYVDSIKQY
# Outline: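 Stimulation is quantified as secreted alkaline phosphatase in supernatant using QUANTI-Blue™ substrate. Reporter HEK293 line co-transfected with hTLR8 and SEAP under an IFN-β minimal promoter with five NF-κB/AP-1 sites; 3.10E4 cells/well, 18 to 24 h pre-culture at 37° C. before compounds.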
activation at 20 µM (human TLR7) [%],activation at 20 µM (human TLR8) [%],EC50 (human TLR7) [nM],EC50 (human TLR8) [nM],SMILES
13.5,10.2,–,–,"CCCCc1nc2c(N)nnc(OC(C)C)c2n1Cc1ccc(CNCCOCCOCCOCCOCCOCCOCCOCCOCCOCCOCCOCCOC)cc1 [Compound 123, 2-butyl-4-isopropoxy-3-[[4-[[2-[2-[2-[2-[2-[2-[2-[2-[2-[2-[2-(2-methoxyethoxy)ethoxy]ethoxy]ethoxy]ethoxy]ethoxy]ethoxy]ethoxy]ethoxy]ethoxy]ethoxy]ethylamino]methyl]phenyl]methyl]imidazo[4,5-d]pyridazin-7-amine di2,2,2-trifluoroacetate]"
–,–,178,231,"CCCCc1nc2c(N)nnc(OC(C)C)c2n1Cc1cccc(CNC)c1 [Compound 124, 2-butyl-7-isopropoxy-1-(3-((methylamino)methyl)benzyl)-1H-imidazo[4,5-d]pyridazin-4-amine]"
–,–,392,115,"CCCCc1nc2c(N)nnc(OC(C)C)c2n1Cc1cccc(CN(C)C)c1 [Compound 125, 2-butyl-1-(3-((dimethylamino)methyl)benzyl)-7-isopropoxy-1H-imidazo[4,5-d]pyridazin-4-amine]"
–,–,122,382,"CCCCc1nc2c(N)nnc(OC(C)C)c2n1Cc1cccc(CNC2CCC2)c1 [Compound 126, 2-butyl-1-(3-((cyclobutylamino)methyl)benzyl)-7-isopropoxy-1H-imidazo[4,5-d]pyridazin-4-amine dihydrochloride salt]"
–,–,93,179,"CCCCc1nc2c(N)nnc(OC(C)C)c2n1Cc1cccc(CNC2CC2)c1 [Compound 127, 2-butyl-1-(3-((cyclopropylamino)methyl)benzyl)-7-isopropoxy-1H-imidazo[4,5-d]pyridazin-4-amine dihydrochloride salt]"
–,–,5980,> 20000,"CCCCc1nc2c(N)nnc(OC(C)C)c2n1Cc1cccc(CNC(C)C)c1 [Compound 128, 2-butyl-7-isopropoxy-1-(3-((isopropylamino)methyl)benzyl)-1H-imidazo[4,5-d]pyridazin-4-amine dihydrochloride salt]"
–,–,1550,6260,"CCCCc1nc2c(N)nnc(OC(C)C)c2n1Cc1cccc(CNC2CS(=O)(=O)C2)c1 [Compound 129, 3-((3-((4-amino-2-butyl-7-isopropoxy-1H-imidazo[4,5-d]pyridazin-1-yl)methyl)benzyl)amino)thietane 1,1-dioxide]"
–,–,76,1060,"CCCCc1nc2c(N)nnc(OC(C)C)c2n1Cc1cccc(CNC2(C)CCC2)c1 [Compound 130, 2-butyl-7-isopropoxy-1-(3-(((1-methylcyclobutyl)amino)methyl)benzyl)-1H-imidazo[4,5-d]pyridazin-4-amine dihydrochloride salt]"
–,–,607,> 20000,"CCCCc1nc2c(N)nnc(OC(C)C)c2n1Cc1cccc(CN2CCNCC2)c1 [Compound 131, 2-butyl-7-isopropoxy-1-(3-(piperazin-1-ylmethyl)benzyl)-1H-imidazo[4,5-d]pyridazin-4-amine]"
–,–,296,> 18500,"CCCCc1nc2c(N)nnc(/C=C/C(C)C)c2n1Cc1ccc(CN)cc1 [Compound 132, (E)-1-(4-(aminomethyl)benzyl)-2-butyl-7-(3-methylbut-1-en-1-yl)-1H-imidazo[4,5-d]pyridazin-4-amine]"
–,–,146,> 19000,"CCCCc1nc2c(N)nnc(CCC(C)C)c2n1Cc1ccc(CN)cc1 [Compound 133, 1-(4-(aminomethyl)benzyl)-2-butyl-7-isopentyl-1H-imidazo[4,5-d]pyridazin-4-amine]"
–,–,274,> 20000,"CCCCc1nc2c(N)nnc(N3CCCC3)c2n1Cc1ccc(CN)cc1 [Compound 134, 1-(4-(aminomethyl)benzyl)-2-butyl-7-(pyrrolidin-1-yl)-1H-imidazo[4,5-d]pyridazin-4-amine]"
–,–,136,252,"CCCCc1nc2c(N)nnc(-c3cc[nH]c3)c2n1Cc1ccc(CN)cc1 [Compound 135, 1-(4-(aminomethyl)benzyl)-2-butyl-7-(1H-pyrrol-3-yl)-1H-imidazo[4,5-d]pyridazin-4-amine 2,2,2-trifluoroacetate]"
–,–,145,> 20000,"CCCCc1nc2c(N)nnc(/C=C/C(C)C)c2n1C[C@H]1CC[C@H](CN)CC1 [Compound 137, 1-(((1R,4R)-4-(aminomethyl)cyclohexyl)methyl)-2-butyl-7-((E)-3-methylbut-1-en-1-yl)-1H-imidazo[4,5-d]pyridazin-4-amine]"
–,–,51.4,> 20000,"CCCCc1nc2c(N)nnc(CCC(C)C)c2n1C[C@H]1CC[C@H](CN)CC1 [Compound 138, 1-(((1R,4R)-4-(aminomethyl)cyclohexyl)methyl)-2-butyl-7-isopentyl-1H-imidazo[4,5-d]pyridazin-4-amine]"
–,–,370,> 20000,"CCCCc1nc2c(N)nnc(/C=C/C(C)C)c2n1C[C@H]1CC[C@H](N)CC1 [Compound 139, 1-(((1R,4R)-4-aminocyclohexyl)methyl)-2-butyl-7-((E)-3-methylbut-1-en-1-yl)-1H-imidazo[4,5-d]pyridazin-4-amine]"
–,–,1310,> 20000,"CCCCc1nc2c(N)nnc(CCC(C)C)c2n1C[C@H]1CC[C@H](N)CC1 [Compound 140, 1-(((1R,4R)-4-aminocyclohexyl)methyl)-2-butyl-7-isopentyl-1H-imidazo[4,5-d]pyridazin-4-amine]"
26.8,19.6,–,–,"CCCCc1nc2c(N)nnc(-c3cc[nH]c3)c2n1C[C@H]1CC[C@H](N)CC1 [Compound 141, 1-(((1R,4R)-4-aminocyclohexyl)methyl)-2-butyl-7-(1H-pyrrol-3-yl)-1H-imidazo[4,5-d]pyridazin-4-amine]"
–,–,2640,> 20000,"CCCCc1nc2c(N)nnc(N3CCCC3)c2n1C[C@H]1CC[C@H](CN)CC1 [Compound 142, 1-(((1R,4R)-4-(aminomethyl)cyclohexyl)methyl)-2-butyl-7-(pyrrolidin-1-yl)-1H-imidazo[4,5-d]pyridazin-4-amine]"
–,–,11000,> 20000,"CCCCc1nc2c(N)nnc(N3CCCC3)c2n1C[C@H]1CC[C@H](N)CC1 [Compound 143, 3-[(4-aminocyclohexyl)methyl]-2-butyl-4-pyrrolidin-1-yl-imidazo[4,5-d]pyridazin-7-amine]"
